# Measurements: ChEMBL document CHEMBL4229455, “Synthesis and anticancer activity of novel bisindolylhydroxymaleimide derivatives with potent GSK-3 kinase inhibition” (Bioorg Med Chem, 2018)
# What was measured:
# UACC-62 = experiment: Cytotoxicity against human UACC62 cells assessed as cell growth at 10 uM after 48 hrs by SRB assay relative to control; type: functional; details: UACC-62, 48 h, read-out: Activity
# M14 = experiment: Cytotoxicity against human M14 cells assessed as cell growth at 10 uM after 48 hrs by SRB assay relative to control; type: functional; details: M14, 48 h, read-out: Activity
# [1] = target: Cyclin-dependent kinase 5/CDK5 activator 1 (Homo sapiens, UniProt Q00535); experiment: Inhibition of recombinant full length human CDK5/p25 expressed in bacteria using histone H1 as substrate in presence of [gamma-33P]ATP
# COLO 205 = experiment: Cytotoxicity against human COLO205 cells assessed as cell growth at 10 uM after 48 hrs by SRB assay relative to control; type: functional; details: COLO 205, 48 h, read-out: Activity
# SF-268 = experiment: Cytotoxicity against human SF268 cells assessed as cell growth at 10 uM after 48 hrs by SRB assay relative to control; type: functional; details: SF-268, 48 h, read-out: Activity
# [2] = target: Serine/threonine-protein kinase pim-1 (Homo sapiens, UniProt P11309); experiment: Inhibition of recombinant full length human PIM1 expressed in bacteria assessed as residual activity at 10 uM using histone H1 as substrate in presence of [gamma-33P]ATP
# 786-0 = experiment: Cytotoxicity against human 786-O cells assessed as cell growth at 10 uM after 48 hrs by SRB assay relative to control; type: functional; details: 786-0, 48 h, read-out: Activity
# NCI-H522 = experiment: Cytotoxicity against human NCI-H522 cells assessed as cell growth at 10 uM after 48 hrs by SRB assay relative to control; type: functional; details: NCI-H522, 48 h, read-out: Activity
# IGROV-1 = experiment: Cytotoxicity against human IGROV1 cells assessed as cell growth at 10 uM after 48 hrs by SRB assay relative to control; type: functional; details: IGROV-1, 48 h, read-out: Activity
# Sus scrofa domesticus = organism: Sus scrofa domesticus; experiment: Inhibition of domestic porcine brain full length […] assessed as residual activity at 10 uM using RRKHAAIGSpAYSITA as substrate in presence of [gamma-33P]ATP
# OVCAR-5 = experiment: Cytotoxicity against human OVCAR5 cells assessed as cell growth at 10 uM after 48 hrs by SRB assay relative to control; type: functional; details: OVCAR-5, 48 h, read-out: Activity
# [3] = target: Receptor-interacting serine/threonine-protein kinase 3 (Homo sapiens, UniProt Q9Y572); experiment: Inhibition of recombinant full length human RIPK3 expressed in baculovirus infected Sf9 insect cells assessed as residual activity at 10 uM using MBP as substrate in presence of [gamma-33P]ATP
# [4] = target: CDK9/cyclin T1 (Homo sapiens) (UniProt O60563+P50750); experiment: Inhibition of recombinant full length human CDK9/cyclin T expressed in baculovirus infected Sf9 insect cells assessed as residual activity at 10 uM using YSPTSPSYSPTSPSYSPTSPSKKKK as substrate in presence of [gamma-33P]ATP
# CAKI-1 = experiment: Cytotoxicity against human Caki1 cells assessed as cell growth at 10 uM after 48 hrs by SRB assay relative to control; type: functional; details: CAKI-1, 48 h, read-out: Activity
# OVCAR-8 [5] = experiment: Cytotoxicity against human OVCAR8 cells assessed as cell growth at 1 uM after 48 hrs by SRB assay relative to control; type: functional; details: OVCAR-8, 48 h, read-out: Activity
# NCI/ADR-RES [6] = experiment: Cytotoxicity against human NCI-ADR-RES cells assessed as cell growth at 10 uM after 48 hrs by SRB assay relative to control; type: functional; details: read-out: Activity
# A549 = experiment: Cytotoxicity against human A549 cells assessed as cell growth at 10 uM after 48 hrs by SRB assay relative to control; type: functional; details: A549, 48 h, read-out: Activity
# [7] = Inhibition of domestic porcine brain full length […] using RRKHAAIGSpAYSITA as substrate in presence of [gamma-33P]ATP; parameters: species or system Sus scrofa domesticus
# NCI/ADR-RES [8] = experiment: Cytotoxicity against human NCI-ADR-RES cells assessed as cell growth at 0.1 uM after 48 hrs by SRB assay relative to control; type: functional; details: read-out: Activity
# [9] = target: CDK2/Cyclin A2 (Homo sapiens) (UniProt P24941+P20248); experiment: Inhibition of full length human CDK2/cyclin A assessed as residual activity at 10 uM using histone H1 as substrate in presence of [gamma-33P]ATP; type: protein-complex assay
# Aurora kinase B = Aurora kinase B (Homo sapiens, UniProt Q96GD4); experiment: Inhibition of recombinant full length human aurora B expressed in baculovirus infected Sf9 insect cells using MBP as substrate in presence of [gamma-33P]ATP
# [10] = target: Dual specificity tyrosine-phosphorylation-regulated kinase 1A (Rattus norvegicus) (UniProt Q63470); experiment: Inhibition of recombinant rat DYRK1A kinase domain expressed in bacteria assessed as residual activity at 10 uM using KKISGRLSPIMTEQ as substrate in presence of [gamma-33P]ATP
# ACHN = experiment: Cytotoxicity against human ACHN cells assessed as cell growth at 10 uM after 48 hrs by SRB assay relative to control; type: functional; details: read-out: Activity
# MCF7 = experiment: Cytotoxicity against human MCF7 cells assessed as cell growth at 10 uM after 48 hrs by SRB assay relative to control; type: functional; details: MCF7, 48 h, read-out: Activity
# NCI-H23 = experiment: Cytotoxicity against human NCI-H23 cells assessed as cell growth at 10 uM after 48 hrs by SRB assay relative to control; type: functional; details: NCI-H23, 48 h, read-out: Activity
# SF-295 = experiment: Cytotoxicity against human SF295 cells assessed as cell growth at 10 uM after 48 hrs by SRB assay relative to control; type: functional; details: SF-295, 48 h, read-out: Activity
# K562 = experiment: Cytotoxicity against human K562 cells assessed as cell growth at 10 uM after 48 hrs by SRB assay relative to control; type: functional; details: K562, 48 h, read-out: Activity
# EKVX = experiment: Cytotoxicity against human EKVX cells assessed as cell growth at 10 uM after 48 hrs by SRB assay relative to control; type: functional; details: read-out: Activity
# OVCAR-8 [11] = experiment: Cytotoxicity against human OVCAR8 cells assessed as cell growth at 10 uM after 48 hrs by SRB assay relative to control; type: functional; details: OVCAR-8, 48 h, read-out: Activity
# SNB-75 = experiment: Cytotoxicity against human SNB75 cells assessed as cell growth at 10 uM after 48 hrs by SRB assay relative to control; type: functional; details: SNB-75, 48 h, read-out: Activity
# MDA-MB-468 = experiment: Cytotoxicity against human MDA-MB-468 cells assessed as cell growth at 10 uM after 48 hrs by SRB assay relative to control; type: functional; details: MDA-MB-468, 48 h, read-out: Activity
# NCI-H322M = experiment: Cytotoxicity against human NCI-H322M cells assessed as cell growth at 10 uM after 48 hrs by SRB assay relative to control; type: functional; details: read-out: Activity
# NCI-H226 = experiment: Cytotoxicity against human NCI-H226 cells assessed as cell growth at 10 uM after 48 hrs by SRB assay relative to control; type: functional; details: NCI-H226, 48 h, read-out: Activity
# Chain of Receptor-interacting serine/threonine-protein kinase 3 (Q9Y572 whole entry, looked up): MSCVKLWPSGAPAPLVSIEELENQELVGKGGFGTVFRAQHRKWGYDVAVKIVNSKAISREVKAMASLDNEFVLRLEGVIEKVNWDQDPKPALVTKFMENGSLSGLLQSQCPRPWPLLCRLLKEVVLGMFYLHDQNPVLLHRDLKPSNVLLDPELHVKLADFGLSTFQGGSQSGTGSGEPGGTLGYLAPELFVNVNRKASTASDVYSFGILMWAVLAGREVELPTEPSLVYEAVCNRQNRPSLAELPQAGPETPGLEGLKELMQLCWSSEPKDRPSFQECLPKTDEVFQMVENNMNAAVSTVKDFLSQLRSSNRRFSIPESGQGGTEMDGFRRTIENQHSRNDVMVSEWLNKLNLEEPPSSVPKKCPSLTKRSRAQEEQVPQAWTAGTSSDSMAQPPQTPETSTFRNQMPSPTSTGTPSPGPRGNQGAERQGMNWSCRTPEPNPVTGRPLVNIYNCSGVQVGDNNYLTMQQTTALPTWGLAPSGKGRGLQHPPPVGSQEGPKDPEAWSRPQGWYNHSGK
# Chain of Cyclin-dependent kinase 5/CDK5 activator 1 (Q00535 whole entry): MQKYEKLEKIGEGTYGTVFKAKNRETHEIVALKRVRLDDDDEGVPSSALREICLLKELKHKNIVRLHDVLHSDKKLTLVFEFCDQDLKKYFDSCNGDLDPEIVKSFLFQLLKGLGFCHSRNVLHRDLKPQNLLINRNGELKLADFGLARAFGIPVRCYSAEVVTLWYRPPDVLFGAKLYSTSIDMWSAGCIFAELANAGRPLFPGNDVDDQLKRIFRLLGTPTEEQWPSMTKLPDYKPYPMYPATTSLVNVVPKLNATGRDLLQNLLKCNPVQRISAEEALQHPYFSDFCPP
# Chain of Cyclin-dependent kinase 5/CDK5 activator 1 (Q15078 whole entry, further chain): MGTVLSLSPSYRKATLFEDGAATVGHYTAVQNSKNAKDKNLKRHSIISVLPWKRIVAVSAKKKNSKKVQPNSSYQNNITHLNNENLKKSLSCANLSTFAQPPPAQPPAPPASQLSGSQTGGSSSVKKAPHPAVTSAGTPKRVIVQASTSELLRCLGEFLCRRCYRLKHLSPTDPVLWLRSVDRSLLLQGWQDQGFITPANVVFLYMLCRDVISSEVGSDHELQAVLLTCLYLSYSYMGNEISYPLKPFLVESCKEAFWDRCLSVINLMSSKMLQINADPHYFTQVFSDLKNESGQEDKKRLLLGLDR
# Chain of Serine/threonine-protein kinase pim-1 (P11309 whole entry, looked up): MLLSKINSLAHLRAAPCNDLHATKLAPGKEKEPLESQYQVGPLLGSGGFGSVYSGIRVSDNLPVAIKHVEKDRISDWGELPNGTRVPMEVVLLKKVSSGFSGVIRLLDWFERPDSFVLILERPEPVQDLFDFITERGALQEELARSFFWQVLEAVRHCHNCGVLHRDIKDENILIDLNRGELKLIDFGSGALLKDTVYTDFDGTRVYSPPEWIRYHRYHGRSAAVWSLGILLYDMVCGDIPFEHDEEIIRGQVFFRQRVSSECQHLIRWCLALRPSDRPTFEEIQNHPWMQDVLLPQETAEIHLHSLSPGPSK
# Chain of Aurora kinase B (Q96GD4 whole entry, the tested form may be a part): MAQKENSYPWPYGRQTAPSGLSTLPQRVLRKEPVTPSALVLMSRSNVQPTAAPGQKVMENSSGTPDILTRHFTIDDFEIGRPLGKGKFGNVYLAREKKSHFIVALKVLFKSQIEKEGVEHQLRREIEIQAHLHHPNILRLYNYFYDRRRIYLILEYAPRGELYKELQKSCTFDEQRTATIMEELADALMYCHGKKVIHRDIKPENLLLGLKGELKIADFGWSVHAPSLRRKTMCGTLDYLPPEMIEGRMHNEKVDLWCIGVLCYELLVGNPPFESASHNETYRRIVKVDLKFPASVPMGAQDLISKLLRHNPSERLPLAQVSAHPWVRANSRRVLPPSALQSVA
Structure (SMILES),growth at 10 µM (UACC-62) [%],growth at 10 µM (M14) [%],IC50 [1] [µM],growth at 10 µM (COLO 205) [%],growth at 10 µM (SF-268) [%],Activity [2] [%],growth at 10 µM (786-0) [%],growth at 10 µM (NCI-H522) [%],growth at 10 µM (IGROV-1) [%],Activity (Sus scrofa domesticus) [%],growth at 10 µM (OVCAR-5) [%],Activity [3] [%],Activity [4] [%],growth at 10 µM (CAKI-1) [%],growth at 1 µM (OVCAR-8 [5]) [%],growth at 10 µM (NCI/ADR-RES [6]) [%],growth at 10 µM (A549) [%],IC50 [7] [µM],growth at 0.1 µM (NCI/ADR-RES [8]) [%],Activity [9] [%],other results
Cn1cc(C2=C(c3cn(C)c4ncccc34)C(=O)NC2=O)c2ccccc21,27 to 36.6,7 to 17.5,0.8,-63,27 to 50.2,1,12,14.3 to 32,8 to 70.8,76,13 to 54.6,79,-10,35,95,34 to 53.5,21 to 28.8,> 10,96,-3,IC50 (Aurora kinase B): > 10 µM; Activity [10]: 30%; growth at 10 µM (ACHN): 8 to 26.5%; growth at 10 µM (MCF7): 13 to 22.7%; growth at 10 µM (NCI-H23): 30 to 49.3%; growth at 10 µM (SF-295): 9.52%; growth at 10 µM (K562): 16 to 19.9%; growth at 10 µM (EKVX): 9 to 62.7%; growth at 10 µM (OVCAR-8 [11]): 23 to 53.8%
N#CCCCCCn1cc(C2=C(c3cn(CCCCCC#N)c4ccccc34)C(=O)N(O)C2=O)c2ccccc21,14 to 53.3,28 to 73.4,> 10,74 to 91.7,50 to 80.6,78,51 to 78.7,1 to 54.9,28 to 66.8,67,95 to 106,109,55,65 to 67,95,62 to 96.3,51 to 73.6,> 10,92,78,growth at 10 µM (SNB-75): 14 to 67.7%; growth at 10 µM (MDA-MB-468): 3 to 58%; growth at 10 µM (NCI-H322M): 45 to 92.3%; IC50 (Aurora kinase B): > 10 µM; Activity [10]: 38%; growth at 10 µM (ACHN): 45 to 81.7%; growth at 10 µM (MCF7): 14 to 39.9%; growth at 10 µM (NCI-H23): 38 to 76.9%; growth at 10 µM (NCI-H226): 44 to 70%; growth at 10 µM (SF-295): 35 to 85%; growth at 10 µM (K562): 15 to 33.9%; growth at 10 µM (OVCAR-8 [11]): 55 to 87.6%
